≈ marks a conversion by molar mass, not a printed value.
Key:
[1] = system: Mycobacterium tuberculosis; test: In vitro antibacterial activity against Mycobacterium tuberculosis MT-1 (wild type strain) isolated from infected patients.; format: functional
[2] = Toxicity after intraperitoneal administration in rats and mice; conditions: rodentia, in vivo, ip
[3] = Clearance rate after i.v. administration in rats; format: ADME, organism-based; conditions: rat, in vivo, iv
[4] = system: Mycobacterium tuberculosis; test: In vitro antibacterial activity against Mycobacterium tuberculosis MT ATCC H37Rv strain; format: functional
[5] = Area under the curve (Concentration) was determined for the compound as AUC with limits 0-8 after i.v. administration in rats; format: ADME, organism-based; parameters: route intravenous; conditions: rat, in vivo, iv
[6] = Elimination half life after i.v. administration of compound in rats; format: ADME, organism-based; conditions: rat, in vivo, iv
Mycobacterium avium [7] = test: In vitro antibacterial activity of compound against Mycobacterium avium MAC ANI (wild type strain) isolated from infected patients.; format: functional
[8] = system: Mycobacterium tuberculosis; test: In vitro antibacterial activity against Mycobacterium tuberculosis MT-2 (wild type strain) isolated from infected patients.; format: functional
Mycobacterium avium [9] = test: In vitro antibacterial activity of compound against Mycobacterium avium MAC AN2 wild type strain) isolated from infected patients.; format: functional
Mycobacterium avium [10] = test: In vitro antibacterial activity of compound against Mycobacterium avium MAC ISS-486 (wild type strain) isolated from infected patients.; format: functional
Mycobacterium avium [11] = test: In vitro antibacterial activity of compound against Mycobacterium avium MAC AN3 (wild type strain) isolated from infected patients.; format: functional
[12] = Volume of steady state distribution after i.v. administration in rats; format: ADME, organism-based; conditions: rat, in vivo, iv; read-out: Vss
[13] = Mean residence time (Pharmacokinetic property) after i.v. administration in rats; format: ADME, organism-based; conditions: rat, in vivo, iv
Mycobacterium avium [14] = test: In vitro antibacterial activity of compound against Mycobacterium avium MAC ATCC 15769; format: functional

Row | Compound | MIC [1] [µg/mL] | LD50 [2] [mg/kg] | clearance [3] [mL/min/kg] | MIC [4] [µg/mL] | AUC [5] [ng·h/mL] | half-life [6] [h] | MIC (Mycobacterium avium [7]) [µg/mL] | MIC [8] [µg/mL] | MIC (Mycobacterium avium [9]) [µg/mL] | MIC (Mycobacterium avium [10]) [µg/mL] | MIC (Mycobacterium avium [11]) [µg/mL] | Vd [12] [L/kg] | MRT [13] [h] | MIC (Mycobacterium avium [14]) [µg/mL]
1 | OCC/N=C(\S)c1cccnc1S | 4 (≈ 18.7 µM) | > 2000 | 93.2 | 2 (≈ 9.33 µM) | 3730 | 0.67 | 4 (≈ 18.7 µM) | 8 (≈ 37.3 µM) | 8 (≈ 37.3 µM) | 8 (≈ 37.3 µM) | 4 (≈ 18.7 µM) | 4.17 | 0.72 | 8 (≈ 37.3 µM)
2 | CN(C)CC/N=C(\S)c1cccnc1S.Cl | 16 | > 2000 | 60.8 | 8 | 6910 | 2.72 | > 16 | > 16 | > 16 | > 16 | > 16 | 11.2 | 2.83 | > 16
3 | Cl.S/C(=N\CCN1CCCC1)c1cccnc1S | 16 | – | – | 8 | – | – | > 16 | > 16 | > 16 | > 16 | > 16 | – | – | > 16
4 | CN1CCN(CCC/N=C(\S)c2cccnc2S)CC1.Cl | 16 | – | – | 8 | – | – | > 16 | > 16 | > 16 | > 16 | > 16 | – | – | > 16
5 | Cl.S/C(=N\CCc1ccccn1)c1cccnc1S | 4 | > 2000 | 144 | 4 | 4700 | 2.22 | 8 | 1 | 8 | 8 | 8 | 14.5 | 1.77 | 4
6 | Cl.S/C(=N\CCCN1CCOCC1)c1cccnc1S | 8 | – | – | 4 | – | – | > 16 | 8 | > 16 | > 16 | > 16 | – | – | > 16
7 | CC/N=C(\S)c1cccnc1S | 1 (≈ 5.04 µM) | – | 20 | 0.5 (≈ 2.52 µM) | 15800 | – | 4 (≈ 20.2 µM) | 1 (≈ 5.04 µM) | 8 (≈ 40.3 µM) | 4 (≈ 20.2 µM) | 8 (≈ 40.3 µM) | 0.93 | – | 4 (≈ 20.2 µM)
8 | CCCCCCC/N=C(\S)c1cccnc1S | 2 (≈ 7.45 µM) | – | 50 | 0.5 (≈ 1.86 µM) | 8250 | – | 4 (≈ 14.9 µM) | 2 (≈ 7.45 µM) | 4 (≈ 14.9 µM) | 4 (≈ 14.9 µM) | 4 (≈ 14.9 µM) | 1.28 | – | 2 (≈ 7.45 µM)
9 | CC[C@@H](CO)NCCN[C@@H](CC)CO [ETHAMBUTOL] | ≤ 2 | – | – | ≤ 2 | – | – | 1 (≈ 4.89 µM) | ≤ 2 | 0.5 (≈ 2.45 µM) | 2 (≈ 9.79 µM) | 2 (≈ 9.79 µM) | – | – | –

Reference: ChEMBL document CHEMBL1135319, “New N-alkyl-1,2-dihydro-2-thioxo-3-pyridinecarbothioamides as antituberculous agents with improved pharmacokinetics” (Bioorg Med Chem Lett, 2002)
